≈ marks a conversion by molar mass, not a printed value.
Tested on: up to 32 different microorganisms
Assay: in vitro antibacterial activity (MIC), agar dilution on Brain Heart Infusion (BHI) agar with Steers replicator
Format: cell-based
Conditions: unit assumed
Procedure, shortened: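 Up to 32 strains were replicator-inoculated (1:100, or 1:10 for Micrococcus and Streptococcus) onto BHI agar plates holding serial compound dilutions and kept 20-24 h at 35-37° C. Plates were read visually against drug-free growth controls, with erythromycin A run alongside; MIC was the lowest concentration giving no growth, slight haze or sparse colonies.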

[1] = Candida albicans CCH 442 (code TT)
[2] = Enterococcus faecism ATCC 8043 (code II)
[3] = Escherichia coli DC-2 (code SS)
[4] = Escherichia coli JUHL (code QQ)
[5] = Micrococcus luteus ATCC 4698 (code PP)
[6] = Micrococcus luteus ATCC 9341 (code OO)
[7] = Mycobacterium smegmatis ATCC 114 (code UU)
[8] = Nocardia Asteroides ATCC9970 (code VV)
[9] = Staphylococcus aureus 1775 (code GG)
[10] = Staphylococcus aureus A5177 (code BB)
[11] = Staphylococcus aureus A-5278 (code CC)
[12] = Staphylococcus aureus ATCC 6538P (code AA)
[13] = Staphylococcus aureus CMX 553 (code FF)
[14] = Staphylococcus aureus CMX 642A (code DD)
[15] = Staphylococcus aureus NCTC10649M (code EE)
[16] = Staphylococcus epidermidis 3519 (code HH)
[17] = Streptococcus agalactiae CMX 508 (code KK)
[18] = Streptococcus bovis A-5169 (code JJ)
[19] = Streptococcus pyogenes 930 (code MM)
[20] = Streptococcus pyogenes PIU 2548 (code NN)

For C=CCOC1(C)CC(C)C(=O)C(C)C(O)C(C)(O)C(CC)OC(=O)C(C)C(=O)C(C)C1OC1OC(C)CC(N(C)C)C1O (stereo not drawn) [Example 1, Compound of Formula (VIII): X is O, R is allyl], the MIC [1] was over 100 µg/mL, the MIC [2] was 12.5 µg/mL and the MIC [3] was over 100 µg/mL. The MIC [4] was over 100 µg/mL, the MIC (Escherichia coli SS (code RR)) was 12.5 µg/mL and the MIC (Haemophilis influenzae DILL AMP R (code WW)) was over 128 µg/mL. For the same compound, the MIC [5] was 6.2 µg/mL, the MIC [6] was 3.1 µg/mL and the MIC [7] was over 100 µg/mL. For the same compound, the MIC [8] was 6.3 µg/mL, the MIC [9] was over 100 µg/mL and the MIC [10] was 50 µg/mL. For the same compound, the MIC [11] was over 100 µg/mL, the MIC [12] was 12.5 µg/mL and the MIC [13] was 25 µg/mL. The MIC [14] was 50 µg/mL, the MIC [15] was 6.2 µg/mL and the MIC [16] was 50 µg/mL. For the same compound, the MIC (Streptococcus Pneumonia 5649 (code ZZA)) was 8 µg/mL, the MIC (Streptococcus Pneumonia 5979 (code ZZ)) was over 128 µg/mL and the MIC (Streptococcus Pneumonia ATCC6303 (code XX)) was 4 µg/mL. It also gave an MIC (Streptococcus Pneumonia GYR 1171 (code YY)) of 4 µg/mL, an MIC [17] of 6.2 µg/mL and an MIC [18] of 25 µg/mL. For the same compound, the MIC [19] was over 100 µg/mL and the MIC [20] was 12.5 µg/mL.

For CC[C@H]1OC(=O)[C@H](C)C(=O)[C@H](C)[C@@H](O[C@@H]2O[C@H](C)C[C@H](N(C)C)[C@H]2O)[C@@](C)(OCC#N)C[C@@H](C)C(=O)[C@H](C)[C@@H](O)[C@]1(C)O [Example 7, Compound of Formula (VIII): X is O, R is —CH2CN], the MIC [1] was over 100 µg/mL, the MIC [2] was 1.56 µg/mL and the MIC [3] was over 100 µg/mL. The MIC [4] was over 100 µg/mL, the MIC (Escherichia coli SS (code RR)) was 3.1 µg/mL and the MIC [5] was 1.56 µg/mL. The MIC [6] was 0.39 µg/mL, the MIC [7] was over 100 µg/mL and the MIC [8] was 0.78 µg/mL. The MIC [9] was over 100 µg/mL, the MIC [10] was 3.1 µg/mL and the MIC [11] was over 100 µg/mL. The MIC [12] was 3.1 µg/mL, the MIC [13] was 3.1 µg/mL and the MIC [14] was 3.1 µg/mL. The MIC [15] was 3.1 µg/mL, the MIC [16] was 3.1 µg/mL and the MIC [17] was 0.78 µg/mL. The MIC [18] was 0.78 µg/mL, the MIC [19] was over 100 µg/mL and the MIC (Streptococcus pyogenes EES61 (code LL)) was 1.56 µg/mL. The MIC [20] was 3.1 µg/mL.

In the case of CCC1OC(=O)C(C)C(=O)C(C)C(OC2OC(C)CC(N(C)C)C2O)C(C)(OCC=Cc2cnc3c([N+](=O)[O-])cccc3c2)CC(C)C(=O)C(C)C2NC(=O)OC12C (stereo not drawn) [Example 211, R is —CH2CH═CH-(8-nitro-3-quinolyl)], the MIC (organism code AA) is reported as 0.05 µg/mL (≈ 0.0617 µM), the MIC (organism code BB) is reported as 0.05 µg/mL (≈ 0.0617 µM) and the MIC (organism code CC) is reported as over 100 µg/mL. It also gave an MIC (organism code DD) of 0.1 µg/mL (≈ 0.123 µM), an MIC (organism code EE) of 0.1 µg/mL (≈ 0.123 µM) and an MIC (organism code FF) of 0.1 µg/mL (≈ 0.123 µM). The MIC (organism code GG) was over 100 µg/mL, the MIC (organism code HH) was 0.05 µg/mL (≈ 0.0617 µM) and the MIC (organism code II) was 0.01 µg/mL (≈ 0.0123 µM). It also gave an MIC (organism code JJ) of 0.01 µg/mL (≈ 0.0123 µM), an MIC (organism code KK) of 0.01 µg/mL (≈ 0.0123 µM) and an MIC (organism code LL) of 0.01 µg/mL (≈ 0.0123 µM). The MIC (organism code MM) was 3.1 µg/mL (≈ 3.82 µM), the MIC (organism code NN) was 0.1 µg/mL (≈ 0.123 µM) and the MIC (organism code OO) was 0.01 µg/mL (≈ 0.0123 µM). It also gave an MIC (organism code PP) of 0.1 µg/mL (≈ 0.123 µM), an MIC (organism code QQ) of 25 µg/mL (≈ 30.8 µM) and an MIC (organism code RR) of 0.2 µg/mL (≈ 0.247 µM). The MIC (organism code SS) was 50 µg/mL (≈ 61.7 µM), the MIC (organism code TT) was over 100 µg/mL and the MIC (organism code UU) was 0.39 µg/mL (≈ 0.481 µM). The MIC (organism code VV) was 0.05 µg/mL (≈ 0.0617 µM), the MIC (organism code WW) was 2 µg/mL (≈ 2.47 µM) and the MIC (organism code XX) was at most 0.004 µg/mL. For the same compound, the MIC (organism code YY) was at most 0.004 µg/mL, the MIC (organism code ZZ) was 16 µg/mL (≈ 19.7 µM) and the MIC (organism code ZZA) was 0.25 µg/mL (≈ 0.308 µM).
